This is an account of results in publication PMC11335209, “Aqp4a and Trpv4 mediate regulatory cell volume increase for swimming maintenance of marine fish spermatozoa” (Cellular and Molecular Life Sciences: CMLS, 2024).

What all share (format): cell-based
One assay concerns the target T1, Trpv4_v1 (Sparus aurata, UniProt A0A671Y4W2).
T1 construct: gene trpv4; full-length cDNA from testis in pT7Ts; cRNA expressed alone in Xenopus laevis oocytes; calculated monomer 99 kDa
T1 sequence (A0A671Y4W2 1-876): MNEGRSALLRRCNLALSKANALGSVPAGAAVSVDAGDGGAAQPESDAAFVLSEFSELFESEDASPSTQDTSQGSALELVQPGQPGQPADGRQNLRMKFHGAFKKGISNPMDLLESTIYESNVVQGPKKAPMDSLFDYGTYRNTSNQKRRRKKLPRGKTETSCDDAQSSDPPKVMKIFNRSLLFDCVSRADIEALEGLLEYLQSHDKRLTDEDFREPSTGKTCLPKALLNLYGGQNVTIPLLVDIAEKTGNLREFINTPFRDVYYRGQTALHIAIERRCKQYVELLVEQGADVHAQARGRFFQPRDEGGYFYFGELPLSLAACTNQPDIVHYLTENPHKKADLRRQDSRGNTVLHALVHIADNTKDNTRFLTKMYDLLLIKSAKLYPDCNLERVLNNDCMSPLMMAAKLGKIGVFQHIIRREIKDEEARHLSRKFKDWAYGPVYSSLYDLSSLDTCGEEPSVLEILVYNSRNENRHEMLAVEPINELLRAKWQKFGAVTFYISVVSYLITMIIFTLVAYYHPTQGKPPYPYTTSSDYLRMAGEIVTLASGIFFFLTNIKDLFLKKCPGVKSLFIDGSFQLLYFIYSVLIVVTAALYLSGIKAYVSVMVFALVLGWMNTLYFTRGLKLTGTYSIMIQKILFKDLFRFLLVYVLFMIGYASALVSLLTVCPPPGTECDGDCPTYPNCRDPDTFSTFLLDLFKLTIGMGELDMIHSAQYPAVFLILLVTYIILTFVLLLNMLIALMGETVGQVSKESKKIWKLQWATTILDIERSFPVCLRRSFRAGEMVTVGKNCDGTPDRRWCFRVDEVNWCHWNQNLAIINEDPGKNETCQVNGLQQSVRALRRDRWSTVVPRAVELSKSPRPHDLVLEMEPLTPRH
The assay can be described thus: two-electrode voltage clamp in Xenopus oocytes, constitutive current at -85 mV. (Two-electrode voltage clamp holds a large cell at a set potential and records current.)

The next assay concerns the target T2, Trpv4_v10 (Sparus aurata, UniProt A0A671Y517).
T2 construct: gene trpv4; synthesized full-length splice-variant cDNA in pT7Ts; cRNA expressed alone in Xenopus laevis oocytes; divergent N-terminus
T2 sequence (A0A671Y517 1-877): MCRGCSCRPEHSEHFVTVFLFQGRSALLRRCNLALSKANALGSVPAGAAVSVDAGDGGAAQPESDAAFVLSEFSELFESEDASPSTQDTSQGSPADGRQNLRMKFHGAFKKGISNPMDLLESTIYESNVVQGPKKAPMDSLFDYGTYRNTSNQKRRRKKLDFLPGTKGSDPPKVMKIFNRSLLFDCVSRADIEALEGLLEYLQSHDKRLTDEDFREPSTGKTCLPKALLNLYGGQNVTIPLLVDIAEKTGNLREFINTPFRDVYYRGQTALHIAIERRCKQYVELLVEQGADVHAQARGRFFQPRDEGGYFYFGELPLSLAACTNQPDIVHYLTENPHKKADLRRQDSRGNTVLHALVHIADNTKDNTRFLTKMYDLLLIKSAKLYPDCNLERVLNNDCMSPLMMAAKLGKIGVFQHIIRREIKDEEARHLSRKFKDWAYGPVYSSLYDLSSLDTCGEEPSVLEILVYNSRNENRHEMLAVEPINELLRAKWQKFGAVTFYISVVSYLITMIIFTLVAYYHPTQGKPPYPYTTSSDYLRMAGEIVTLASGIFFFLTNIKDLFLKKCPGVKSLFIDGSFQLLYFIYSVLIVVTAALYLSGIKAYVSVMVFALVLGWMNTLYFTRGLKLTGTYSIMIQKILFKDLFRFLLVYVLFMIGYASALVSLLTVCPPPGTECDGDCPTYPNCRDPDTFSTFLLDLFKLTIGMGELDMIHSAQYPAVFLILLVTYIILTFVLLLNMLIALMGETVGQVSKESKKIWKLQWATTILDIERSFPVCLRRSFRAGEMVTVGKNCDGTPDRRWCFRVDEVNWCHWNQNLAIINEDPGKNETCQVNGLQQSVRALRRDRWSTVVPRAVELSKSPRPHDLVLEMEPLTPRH
The description is as above.

For another assay, the target named is T3, Aqp4a-M43 (Sparus aurata, UniProt A0A678R2D9).
T3 construct: gene Aqp4; short isoform starting at Met-43, 31 kDa; cRNA expressed in Xenopus laevis oocytes
The assay can be described thus: oocyte swelling assay (osmotic water permeability Lp). The following applies: 5 min pretreatment, hyposmotic challenge -100 mOsm, pH 7.4.

Where [1] appears, read: 5 min exposure, isosmotic 220 mOsm, pH 7.4, room temperature.

T3 sequence (A0A678R2D9 entry or part of it): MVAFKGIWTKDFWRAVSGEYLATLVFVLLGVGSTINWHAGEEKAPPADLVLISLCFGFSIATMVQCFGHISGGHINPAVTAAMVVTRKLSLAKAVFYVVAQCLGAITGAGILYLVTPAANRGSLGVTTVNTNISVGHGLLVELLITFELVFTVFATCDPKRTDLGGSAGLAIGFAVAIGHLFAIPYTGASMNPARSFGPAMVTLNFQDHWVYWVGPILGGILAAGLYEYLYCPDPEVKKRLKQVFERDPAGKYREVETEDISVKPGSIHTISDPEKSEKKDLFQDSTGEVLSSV

In general, inhibition refers to the change of the read-out against control, counted positive when it falls. Read a high inhibition as a response far below the control. As to `Cc1c(C(=O)Nc2cccc(C(F)(F)F)c2)cc(-c2ccccc2)n1CCCN1CCOCC1` [HC-067047], the inhibition at 10 µM on Trpv4_v1 and at Trpv4_v10 was around 8% in each case.

For `CC(C)NCCN(C(C)C)S(=O)(=O)c1ccc(Cl)cc1Cl` [RN-1734], the values for the inhibition at 100 µM at Trpv4_v1 and at Trpv4_v10 were around 40% and around 9%, respectively.

Consider `O=C(Nc1nncs1)c1cccnc1` [TGN-020, 2-(Nicotinamide)-1,3,4-thiadiazole], for which, on Aqp4a-M43, the “% reduction of Lp at 20 μM” value is on record as ~ 82%.

On to `N.N.N.N.N.N.N.N.N.N.N.N.N.N.[Cl-].[Cl-].[Cl-].[Cl-].[Cl-].[Cl-].[O-2].[O-2].[Ru+3].[Ru+3].[Ru+4]` [ruthenium red], for which the “% inhibition at 10 μM” value is reported as ~ 28% at Trpv4_v1 (setting [1]) and ~ 5% on Trpv4_v10 (setting [1]).
